Reference: patent publication EP1913949A1, “Modulation of substrate preference by selective translocation of the major cardiac glucose transporter Glut4” (priority 2006, dated 2008)
Where two headings read alike, the source gives them in different places.

What was measured:
[1] = test system: heart-derived giant vesicles; assay: glucose uptake by giant vesicles (intrinsic transporter activity); assay type: biochemical, rat; details: for glucose uptake into giant vesicles inhibited: inhibitor 10 µM
[2] = test system: heart-derived giant vesicles; assay type: biochemical, rat
CD36 = assay type: cell-based, rat
FABPpm = assay type: cell-based, rat
Akt/PKB = assay type: cell-based, rat; details: for effect on Akt/PKB phosphorylation: 20 min
cardiac myocytes [3] = test system: cardiac myocytes
cardiac myocytes [4] = details: for effect on LCFA uptake: in the absence or in the presence of insulin or arsenite, SB202190 (10 µM), PD98059 (10 µM), rapamycin (100 nM)
p38 MAPK [5] = test system: p38 MAPK
AMPK [6] = details: 20 min
ACC [7] = test system: ACC
cardiac myocytes [8] = assay: tissue or blood; details: Rattus norvegicus
p38 MAPK [9] = assay: cells; details: Rattus norvegicus, 20 min, read-out: increase in p38 MAPK phosphorylation
AMPK [10] = assay: cells; details: Rattus norvegicus, 20 min, read-out: increase in phosphorylation of AMPK
ACC [11] = assay: cells; details: Rattus norvegicus, 20 min, read-out: increase in phosphorylation of ACC
[12] = 10 µM SB202190 added 20 min prior to 100 µM arsenite
[13] = SB202190, PD98059 10 µM, rapamycin 20 nM, wortmannin 200 nM, stimulus 100 nM insulin
[14] = SB202190, SB203580, PD98059 10 µM, rapamycin 20 nM, stimulus 100 µM arsenite
[15] = SB202190, PD98059 10 µM, rapamycin 20 nM, wortmannin 200 nM, stimulus 50 µM phenylephrine
[16] = SB202190, PD98059 10 µM, rapamycin 20 nM, wortmannin 200 nM, stimulus 100 µM arsenite
[17] = SB202190, PD98059 10 µM, rapamycin 20 nM, wortmannin 200 nM, stimulus 5 µM oligomycin
[18] = read-out: basal glucose uptake inhibited
[19] = read-out: glucose uptake inhibited in cardiac myocytes
[20] = read-out: glucose uptake inhibited in the presence of arsenite
[21] = read-out: glucose uptake inhibited in the presence of insulin
[22] = PD98059 (10 µM), rapamycin (100 nM), wortmannin (200 nM), no stimulus

sodium arsenite
effect on glucose uptake into giant vesicles [1]: did not influence
effect on LCFA uptake into giant vesicles [2]: did not influence
contents of CD36 in the LDM- and PM fractions (CD36; 20 min): did not significantly influence
distribution of FABPpm between the LDM and the PM fraction (FABPpm; 20 min): did not significantly influence
effect on Akt/PKB phosphorylation (Akt/PKB): did not stimulate
deoxyglucose uptake (cardiac myocytes [3]): without a further increase
effect of arsenite on glucose uptake in combination with oligomycin (cardiac myocytes [3]): retained its stimulatory action
effect of arsenite on glucose uptake in insulin-stimulated cardiac myocytes (cardiac myocytes [3]): ineffective
deoxyglucose uptake stimulated (cardiac myocytes [3]; cardiac myocytes, 20 min, 100 µM): 5.1 fold
LCFA uptake (cardiac myocytes [4]): did not increase
effect of arsenite on LCFA uptake in combination with insulin or oligomycin (cardiac myocytes [4]): did not significantly alter
content of GLUT4 in the LDM fraction decreased (GLUT4; 20 min): 44%
content of GLUT4 in the PM fraction increased (GLUT4; 20 min, 100 µM): 1.7 fold
increase in p38 MAPK phosphorylation (p38 MAPK [5]; 20 min): 7.8 ± 1.8 fold
increase in p42/44 ERK phosphorylation (p42/44 ERK; 20 min, 100 µM): 2.3 ± 0.5 fold
increase in p70 S6K phosphorylation (p70 S6K; 20 min, 100 µM): 3.3 ± 0.7 fold
effect on phosphorylation of AMPK (AMPK [6]): remained unaltered
effect on phosphorylation of ACC (ACC [7]; 20 min): remained unaltered

COC[C@H]1OC(=O)c2coc3c2[C@@]1(C)C1=C(C3=O)[C@@H]2CCC(=O)[C@@]2(C)C[C@H]1OC(C)=O [wortmannin]
effect on glucose uptake into giant vesicles [1]: did not alter
inhibition of insulin-induced Akt/PKB phosphorylation (Akt/PKB): completely blocked
effect on arsenite-stimulated glucose uptake (cardiac myocytes [3]): completely failed to inhibit
effect on basal glucose uptake (cardiac myocytes [3]): did not inhibit
effect on insulin-stimulated glucose uptake (cardiac myocytes [3]): largely blocked
effect on basal LCFA uptake (cardiac myocytes [4]): no effect
effect on insulin-induced LCFA uptake (cardiac myocytes [4]): completely blocked
inhibition of phenylephrine-induced p42/44 ERK phosphorylation (p42/44 ERK): unaltered
inhibition of arsenite-induced p70 S6K phosphorylation (p70 S6K): completely blocked
inhibition of oligomycin-induced ACC phosphorylation (ACC [7]): unaltered

Oc1ccc(-c2nc(-c3ccncc3)c(-c3ccc(F)cc3)[nH]2)cc1 [SB202190]
glucose uptake into giant vesicles inhibited ([1]; added 20 min prior): -27%
effect on subcellular distribution of CD36 (CD36; [12]): did not influence
effect on subcellular distribution of FABPpm (FABPpm; [12]): did not influence
inhibition of insulin-induced Akt/PKB phosphorylation (Akt/PKB; [13]): did not affect
effect on LCFA uptake (cardiac myocytes [4]): neither SB202190, nor PD98059 or rapamycin were able to influence
effect on arsenite-induced GLUT4 translocation (GLUT4; [12]): did not affect
inhibition of arsenite-stimulated p38 MAPK phosphorylation (p38 MAPK [5]; [14]): largely inhibited
inhibition of phenylephrine-induced p42/44 ERK phosphorylation (p42/44 ERK; [15]): did not affect
inhibition of arsenite-induced p70 S6K phosphorylation (p70 S6K; [16]): did not affect
inhibition of oligomycin-induced ACC phosphorylation (ACC [7]; [17]): did not affect
inhibition at 10 µM (cardiac myocytes [8]; [18]): -45%
inhibition at 10 µM (cardiac myocytes [8]; [19]): -33%
inhibition at 10 µM (cardiac myocytes [8]; [20]): -42%
inhibition at 10 µM (cardiac myocytes [8]; [21]): -33%

COc1cccc(-c2cc(=O)c3ccccc3o2)c1N [PD98059]
effect on glucose uptake into giant vesicles ([1]; same concentrations as in cardiac myocyte studies, added 20 min prior): did not alter
inhibition of insulin-induced Akt/PKB phosphorylation (Akt/PKB; [13]): did not inhibit
effect on arsenite-stimulated glucose uptake (cardiac myocytes [3]; PD98059 (10 µM), rapamycin (100 nM), wortmannin (200 nM), 100 µM arsenite): neither PD98059 nor rapamycin affected glucose uptake
effect on insulin-stimulated glucose uptake (cardiac myocytes [3]; PD98059 (10 µM), rapamycin (100 nM), wortmannin (200 nM), insulin): neither PD98059 nor rapamycin affected glucose uptake
effect on basal glucose uptake (cardiac myocytes [3]; [22]): no effect
effect on LCFA uptake (cardiac myocytes [4]): neither SB202190, nor PD98059 or rapamycin were able to influence
inhibition of arsenite-stimulated p38 MAPK phosphorylation (p38 MAPK [5]; [14]): did not inhibit
inhibition of phenylephrine-induced p42/44 ERK phosphorylation (p42/44 ERK; [15]): completely inhibited
inhibition of arsenite-induced p70 S6K phosphorylation (p70 S6K; [16]): did not inhibit
inhibition of oligomycin-induced ACC phosphorylation (ACC [7]; [17]): did not inhibit

C[S+]([O-])c1ccc(-c2nc(-c3ccncc3)c(-c3ccc(F)cc3)[nH]2)cc1 (stereo not drawn) [SB203580]
glucose uptake into giant vesicles inhibited ([1]; added 20 min prior): -46%
inhibition of arsenite-stimulated p38 MAPK phosphorylation (p38 MAPK [5]): similarly potent in blocking
inhibition at 10 µM (cardiac myocytes [8]; [18]): -56%
inhibition at 10 µM (cardiac myocytes [8]; [19]): -56%
inhibition at 10 µM (cardiac myocytes [8]; [20]): -57%
inhibition at 10 µM (cardiac myocytes [8]; [21]): -46%

CC[C@H]1/C=C/C=C/C[C@@H](C)[C@H](O)[C@@](C)(O)C(=O)[C@@H](C)[C@H](O)[C@@H](C)C(=O)[C@@H](C)[C@H](O)[C@@H](C)/C=C/C(=O)O[C@@H]2[C@H](C)[C@H](CC1)O[C@]1(CC[C@H](C)[C@H](C[C@@H](C)O)O1)[C@H]2C [oligomycin]
effect on Akt/PKB phosphorylation (Akt/PKB; 5 µM oligomycin or 100 µM arsenite): did not increase
effect on p42/44 ERK phosphorylation (p42/44 ERK; 20 min, 5 µM oligomycin): did not increase
effect on p70 S6K phosphorylation (p70 S6K; oligomycin): did not enhance
fold induction at 5 µM (p38 MAPK [9]): 5.7 ± 1.5
fold induction at 5 µM (AMPK [10]): > 10
fold induction at 5 µM (ACC [11]): > 10
fold induction at 5 µM (cardiac myocytes [8]; read-out: glucose uptake increased): 2.9

CO[C@H]1C[C@@H]2CC[C@@H](C)[C@@](O)(O2)C(=O)C(=O)N2CCCC[C@H]2C(=O)O[C@H]([C@H](C)C[C@@H]2CC[C@@H](O)[C@H](OC)C2)CC(=O)[C@H](C)/C=C(\C)[C@@H](O)[C@@H](OC)C(=O)[C@H](C)C[C@H](C)/C=C/C=C/C=C/1C [rapamycin]
effect on basal glucose uptake (cardiac myocytes [3]; [22]): no effect
